Reference: patent US20040253243A1, “Aptamer therapeutics useful in ocular pharmacotherapy” (priority 2003, published 2004)
Read-outs that look alike come from different tables or passages of the source.

Legend:
[1] = tested on: PDGF-induced 3T3 cell proliferation; assay: PDGF-induced 3T3 cell proliferation; format: cell-based; conditions: compared with anti-PDGF antibody (Upstate/Cell Signaling Solutions)
[2] = rabbit, in vivo
Procedure: Studies were performed in the Dutch-belted rabbit model using […]. Aptamers were administered at a dose level of 1.0 mg/eye, bilaterally via […] intravitreal injection. Samples from the aqueous humor, vitreous humor and plasma were taken before administration of the aptamer and a 0.25 h, 6 h, 24 h, 72 h, 7d, […], and 21d. FIGS. 22A, 22B and 22C show the vitreous humor and/or plasma concentration of each aptamer through 25 days post administration.
The results shown in FIG. 22A were obtained using noncompartmental (NCA) analysis. The volume of rabbit vitreous humor was approximately 1.0-1.5 ml.

[3] = Animal models for glomerulonephritis, restenosis, cancer and pulmonary hypertension; format: in vivo
[4] = in vivo, iv
[5] = mouse, in vivo; for AUC / MRT / tmax / t½: 10 mg/kg
PDGF AB and BB = assay: PDGF binding (Kd); set-up: species or system human
PDGF AB and BB, sequence (P01127 82-190 limits assumed): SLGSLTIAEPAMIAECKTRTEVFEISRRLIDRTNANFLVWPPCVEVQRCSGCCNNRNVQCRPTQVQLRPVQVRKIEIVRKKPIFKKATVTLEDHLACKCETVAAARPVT

PDGF AA isoform = PDGF AA isoform (Homo sapiens, UniProt P04085); assay: PDGF AA isoform binding; conditions: FIG. 13A
[6] = rabbit, in vivo; remark: listed apart in the source
rat PDGF = rat PDGF (Rattus norvegicus, UniProt Q05028); assay: Rat PDGF binding; conditions: FIG. 14A
rat PDGF, sequence (Q05028 74-182 limits assumed): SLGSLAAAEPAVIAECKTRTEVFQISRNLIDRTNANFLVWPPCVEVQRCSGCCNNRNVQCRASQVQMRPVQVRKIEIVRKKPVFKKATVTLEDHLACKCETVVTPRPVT

PDGF [7] = molecular target: T1, PDGF (Homo sapiens, UniProt P01127); conditions: iv
T1 sequence (P01127 82-190 limits assumed): as the sequence (P01127 82-190 limits assumed) above

[8] = tested on: retinal pigmented epithelial (RPE) cells; assay: RPE cell migration with PDGF; format: cell-based; conditions: 100 ng/ml PDGF
Excerpt: The graphs presented in FIG. 15E and 15F show the increasing effect of PDGF concentration on RPE cell migration.

PDGF [9] = molecular target: T1, PDGF; assay: Cellular IC50 of anti-PDGF aptamer; format: cell-based

5′-[PEG40K]-NH2-dCdAdGdGdCfUdAfCmG-PEG-dCdGTdAmGdAmGdCdAfUfCmA-PEG-TdGdATfCfCfUmG-3T-3′ [ARC127]
ability to block PDGF-induced 3T3 cell proliferation [1]: comparable to the ability of an anti-PDGF antibody | Cl [2]: 0.29 mL?d^−1 | Cmax [2]: ~100 µM | Vss [2]: 1.42 mL | half life in the vitreous humor [2]: 84 h | t1/2 [2]: 92.9 h | tmax [2]: 0.25 h | efficacy in animal models [3]: efficacy in the animal models for glomerulonephritis, restenosis, cancer and pulmonary hypertension | systemic half life [4]: 6 to 12 h | bioavailability ([5]; ip): 62.5% | AUC ([5]; ip): 143.6055 µM·h | MRT ([5]; ip): 11.23 h | tmax ([5]; ip): 8 h | t½ ([5]; ip): 7.86 h | AUC ([5]; iv): 229.6868 µM·h | MRT ([5]; iv): 6.57 h | tmax ([5]; iv): 2 h | t½ ([5]; iv): 8.60 h | bioavailability ([5]; sc): 24.0% | AUC ([5]; sc): 55.0309 µM·h | MRT ([5]; sc): 16.63 h | tmax ([5]; sc): 8 h | t½ ([5]; sc): 9.18 h | recognition of BB and AB isoforms of PDGF (PDGF AB and BB; FIGS. 13A and 13B): recognizes the BB and AB isoforms of PDGF | Kd (PDGF AB and BB; anti-PDGF aptamer, isoform not stated, read-out: dissociation constant (Kd)): 100 pM | Kd (PDGF AB and BB; read-out: Kd, PDGF AB and BB): 100 pM | recognition of AA isoform of PDGF (PDGF AA isoform): not the AA isoform alone | half life (intravitreal) [6]: 92.9 h | affinity for human and rat PDGFs (rat PDGF): equivalent affinity | duration of measurable activity in vivo (PDGF [7]): 48 h | blocking of RPE cell migration [8]: specifically blocks migration of retinal pigmented epithelial (RPE) cells | IC50 (PDGF [9]): 2000 pM
